Reference: ChEMBL document CHEMBL3352542, “Synthesis, biological evaluation and molecular modeling study of 2-(1,3,4-thiadiazolyl-thio and 4-methyl-thiazolyl-thio)-quinazolin-4-ones as a new class of DHFR inhibitors” (Bioorg Med Chem Lett, 2014)

What was measured:
Dihydrofolate reductase = molecular target: T1, Dihydrofolate reductase (Bos taurus, UniProt P00376); assay: Inhibition of bovine liver DHFR
T1 sequence (P00376 whole entry): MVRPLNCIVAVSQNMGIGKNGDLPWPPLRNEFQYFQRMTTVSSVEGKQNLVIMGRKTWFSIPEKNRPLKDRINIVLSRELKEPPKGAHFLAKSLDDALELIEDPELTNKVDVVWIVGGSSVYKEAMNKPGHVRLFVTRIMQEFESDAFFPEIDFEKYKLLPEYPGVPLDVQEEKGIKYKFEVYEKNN

Staphylococcus aureus = assay: Antimicrobial activity against Staphylococcus aureus assessed as inhibition zone at 200 ug/disk after 24 hrs by disc-diffusion method; assay type: functional; conditions: read-out: IZ
Bacillus subtilis = assay: Antimicrobial activity against Bacillus subtilis assessed as inhibition zone at 200 ug/disk after 24 hrs by disc-diffusion method; assay type: functional; conditions: read-out: IZ
Escherichia coli = assay: Antimicrobial activity against Escherichia coli assessed as inhibition zone at 200 ug/disk after 24 hrs by disc-diffusion method; assay type: functional; conditions: read-out: IZ
Pseudomonas aeruginosa = assay: Antimicrobial activity against Pseudomonas aeruginosa assessed as inhibition zone at 200 ug/disk after 24 hrs by disc-diffusion method; assay type: functional; conditions: read-out: IZ
Candida albicans = assay: Antimicrobial activity against Candida albicans assessed as inhibition zone at 200 ug/disk after 24 hrs by disc-diffusion method; assay type: functional; conditions: read-out: IZ
K562 = assay: Growth inhibition of human K562 cells at 10 uM after 48 hrs; assay type: functional; conditions: K562, 48 h, read-out: GI
[1] = Growth inhibition of human RPMI8226 cells at 10 uM after 48 hrs; assay type: functional; conditions: RPMI-8226, 48 h, read-out: GI
SR = assay: Growth inhibition of human SR cells at 10 uM after 48 hrs; assay type: functional; conditions: read-out: GI
[2] = Growth inhibition of human HOP92 cells at 10 uM after 48 hrs; assay type: functional; conditions: HOP-92, 48 h, read-out: GI
NCI-H226 = assay: Growth inhibition of human NCI-H226 cells at 10 uM after 48 hrs; assay type: functional; conditions: NCI-H226, 48 h, read-out: GI
NCI-H522 = assay: Growth inhibition of human NCI-H522 cells at 10 uM after 48 hrs; assay type: functional; conditions: NCI-H522, 48 h, read-out: GI
[3] = Growth inhibition of human SF295 cells at 10 uM after 48 hrs; assay type: functional; conditions: SF-295, 48 h, read-out: GI
[4] = Growth inhibition of human UACC62 cells at 10 uM after 48 hrs; assay type: functional; conditions: UACC-62, 48 h, read-out: GI
[5] = Growth inhibition of human OVCAR4 cells at 10 uM after 48 hrs; assay type: functional; conditions: OVCAR-4, 48 h, read-out: GI
A498 = assay: Growth inhibition of human A498 cells at 10 uM after 48 hrs; assay type: functional; conditions: A498, 48 h, read-out: GI
CAKI-1 = assay: Growth inhibition of human CAKI-1 cells at 10 uM after 48 hrs; assay type: functional; conditions: CAKI-1, 48 h, read-out: GI
[6] = Growth inhibition of human RXF393 cells at 10 uM after 48 hrs; assay type: functional; conditions: RXF 393, 48 h, read-out: GI
[7] = Growth inhibition of human UO31 cells at 10 uM after 48 hrs; assay type: functional; conditions: UO-31, 48 h, read-out: GI
[8] = Growth inhibition of human PC3 cells at 10 uM after 48 hrs; assay type: functional; conditions: PC-3, 48 h, read-out: GI
MCF7 = assay: Growth inhibition of human MCF7 cells at 10 uM after 48 hrs; assay type: functional; conditions: MCF7, 48 h, read-out: GI

COc1ccc(-n2c(Sc3sc(N)nc3C)nc3ccc(Cl)cc3c2=O)cc1
IC50 (Dihydrofolate reductase): 8 µM
zone of inhibition at 200 µg/disc (Staphylococcus aureus): 8 mm
zone of inhibition at 200 µg/disc (Bacillus subtilis): 8 mm
zone of inhibition at 200 µg/disc (Escherichia coli): 8 mm
zone of inhibition at 200 µg/disc (Pseudomonas aeruginosa): 8 mm
zone of inhibition at 200 µg/disc (Candida albicans): 8 mm
inhibition of growth at 10 µM (K562): 14.3%
inhibition of growth at 10 µM [1]: 14.6%
inhibition of growth at 10 µM (SR): 13.5%
inhibition of growth at 10 µM [2]: 24.9%
inhibition of growth at 10 µM (NCI-H226): 11.8%
inhibition of growth at 10 µM (NCI-H522): 10.5%
inhibition of growth at 10 µM [3]: 27.6%
inhibition of growth at 10 µM [4]: 12.6%
inhibition of growth at 10 µM [5]: 13.8%
inhibition of growth at 10 µM (A498): 24.3%
inhibition of growth at 10 µM (CAKI-1): 13.1%
inhibition of growth at 10 µM [6]: 13.4%
inhibition of growth at 10 µM [7]: 35.5%
inhibition of growth at 10 µM [8]: 14.7%
inhibition of growth at 10 µM (MCF7): 11.5%
